In the experiment the target is T1, human 5-HT2B receptor (Homo sapiens, UniProt P41595).
T1 construct: expressed in transfected cells
The experiment is described as follows: competition assay: inhibition of binding of [3H]5-hydroxytryptamine to the cloned human 5-HT2B receptor (cell membranes).

Molecules are shown by their SMILES. Read-outs that look alike come from different tables or passages of the source.

T1 sequence (P41595 whole entry): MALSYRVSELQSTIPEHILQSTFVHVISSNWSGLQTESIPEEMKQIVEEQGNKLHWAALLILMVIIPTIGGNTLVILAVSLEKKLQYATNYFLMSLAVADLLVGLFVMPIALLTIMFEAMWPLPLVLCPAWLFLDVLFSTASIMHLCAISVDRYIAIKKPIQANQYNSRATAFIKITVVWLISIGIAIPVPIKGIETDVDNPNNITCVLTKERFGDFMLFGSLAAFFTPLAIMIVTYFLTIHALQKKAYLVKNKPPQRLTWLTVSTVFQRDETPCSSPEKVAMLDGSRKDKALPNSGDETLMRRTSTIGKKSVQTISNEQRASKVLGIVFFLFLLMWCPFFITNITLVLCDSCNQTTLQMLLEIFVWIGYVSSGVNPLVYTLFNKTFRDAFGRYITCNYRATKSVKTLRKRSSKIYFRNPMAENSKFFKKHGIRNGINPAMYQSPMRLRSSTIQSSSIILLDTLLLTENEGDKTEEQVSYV

In the case of `O=C(CCCN1CCC2(CC1)C(=O)NCN2c1ccccc1)c1ccc(F)cc1` [spiperone, 8-[4-(4-fluorophenyl)4-oxobutyl]-1-phenyl-1,3,8-triazaspiro[4,5]decan-4-one], under “read-out: IC50 (concentration which displaces or inhibits the binding of 50% of the labeled 5-hydroxytryptamine)”, the IC50 was 691 nM. In turn, `CC(N)Cc1c[nH]c2ccc(O)cc12` (stereo not drawn) [α-methyl-5-hydroxytryptamine, 3-(2-aminopropyl)-1H-indol-5-ol] had an IC50 of 11.8 nM. The same measure, in the same setting: in the case of `c1ccc2c(N3CCNCC3)cccc2c1` [1-(1-naphthyl)piperazine, 1-(1-Naphthyl)piperazine] it was 2.41 nM.

Values taken from US5698444A (Eli Lilly and Company, priority 1993, dated 1997).
